The text below walks through data of ChEMBL document CHEMBL3091407, “Synthesis of Novel 3,5-Disubstituted-2-oxindole Derivatives As Antitumor Agents against Human Nonsmall Cell Lung Cancer” (ACS Med Chem Lett, 2013).

The target in test [1] is Receptor tyrosine-protein kinase erbB-2 (Homo sapiens) (UniProt P04626). The experiment in a line: Inhibition of Her2 phosphorylation at Tyr1221/1222 in human A549 cells at 10 uM after 3 hrs followed by 10 mins incubation in 10% FBS by Western blotting analysis. In kind it is cell-based. In general terms: A western blot detects proteins with antibodies after separation by electrophoresis.
Chain of Receptor tyrosine-protein kinase erbB-2 (Homo sapiens) (P04626 whole entry): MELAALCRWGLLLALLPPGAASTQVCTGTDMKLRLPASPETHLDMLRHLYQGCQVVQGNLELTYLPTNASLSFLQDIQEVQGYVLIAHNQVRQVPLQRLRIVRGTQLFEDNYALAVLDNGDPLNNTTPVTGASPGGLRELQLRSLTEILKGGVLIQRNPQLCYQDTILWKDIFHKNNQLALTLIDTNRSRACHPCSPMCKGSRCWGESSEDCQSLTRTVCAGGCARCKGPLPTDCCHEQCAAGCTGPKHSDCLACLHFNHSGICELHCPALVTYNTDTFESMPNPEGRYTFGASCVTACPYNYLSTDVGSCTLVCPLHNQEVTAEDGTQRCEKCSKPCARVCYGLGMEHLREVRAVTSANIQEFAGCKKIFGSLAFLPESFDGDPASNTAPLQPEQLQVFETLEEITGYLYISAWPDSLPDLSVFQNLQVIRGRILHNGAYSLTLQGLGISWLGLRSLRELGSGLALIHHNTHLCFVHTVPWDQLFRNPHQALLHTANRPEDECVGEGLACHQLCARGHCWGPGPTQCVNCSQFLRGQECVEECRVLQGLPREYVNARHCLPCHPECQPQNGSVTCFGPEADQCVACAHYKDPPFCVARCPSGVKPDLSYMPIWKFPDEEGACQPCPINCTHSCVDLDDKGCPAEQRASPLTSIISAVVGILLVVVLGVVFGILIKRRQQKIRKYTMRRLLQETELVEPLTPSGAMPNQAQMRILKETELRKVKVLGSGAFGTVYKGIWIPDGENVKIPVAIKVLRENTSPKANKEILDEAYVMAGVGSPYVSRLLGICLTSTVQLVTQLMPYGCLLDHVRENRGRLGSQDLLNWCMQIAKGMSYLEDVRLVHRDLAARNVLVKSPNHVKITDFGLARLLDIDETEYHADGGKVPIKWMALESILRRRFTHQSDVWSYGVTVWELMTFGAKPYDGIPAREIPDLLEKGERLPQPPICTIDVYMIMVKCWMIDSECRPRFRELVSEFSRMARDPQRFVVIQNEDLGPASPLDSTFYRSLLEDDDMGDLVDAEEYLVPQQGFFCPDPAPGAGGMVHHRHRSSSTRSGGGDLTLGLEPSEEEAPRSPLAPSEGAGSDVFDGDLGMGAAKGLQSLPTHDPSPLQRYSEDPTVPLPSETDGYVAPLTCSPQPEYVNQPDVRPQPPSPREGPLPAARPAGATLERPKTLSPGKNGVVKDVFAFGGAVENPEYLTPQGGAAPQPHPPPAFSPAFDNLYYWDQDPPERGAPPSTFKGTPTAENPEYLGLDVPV

The test system of test [2] is A549. The experiment in a line: Cytotoxicity against human A549 cells at 0.01 to 100 uM by haemocytometry. Format: functional, cell-based. The note with it: TDE = time-dependent effect.
The subject of test [3] is A549. The test is described as follows: Induction of apoptosis in human A549 cells assessed as cell shrinkage at IC50 by fluorescence microscopy. In kind it is functional, cell-based.
Test [4] deals with A549. The experiment in a line: Induction of apoptosis in human A549 cells assessed as apoptotic index at IC50 by fluorescence microscopy relative to control. Format: functional.
The subject of test [5] is A549. The experiment in a line: Cytotoxicity against human A549 cells after 24 to 72 hrs by haemocytometry. Format: functional, cell-based.
Test [6] has as its system MDA-MB-231. The experiment in a line: Cytotoxicity against human MDA-MB-231 cells at 1 to 10 uM after 72 hrs by haemocytometry. In kind it is functional, cell-based.
In test [7] the test system is A549. The experiment in a line: Ratio of perifosine IC50 to compound IC50 for human A549 cells. In kind it is functional.
The subject of test [8] is A549. The test is described as follows: Cell cycle arrest in human A549 cells assessed as decrease in G1 cells at IC50 after 24 hrs followed by compound washout by propidium iodide staining-based FACS analysis. Format: functional. The arrangement: scale not given: the % may be the effect or the level left. A general note: A flow cytometer gives signals particle by particle.

Test [9] has as its target Epidermal growth factor receptor (Homo sapiens) (UniProt P00533). The test is described as follows: Inhibition of EGFR phosphorylation at […] in human A549 cells at 10 uM after 3 hrs followed by 10 mins incubation in 10% FBS by Western blotting analysis. In kind it is cell-based.
The test system of test [10] is A549. The experiment in a line: Cell cycle arrest in human A549 cells assessed as decrease in S cells at IC50 after 24 hrs followed by compound washout by propidium iodide staining-based FACS analysis. The arrangement: scale not given: the % may be the effect or the level left. In kind it is functional.
Test [11] has as its system A549. The test is described as follows: Induction of apoptosis in human A549 cells assessed as nuclear fragmentation at IC50 by fluorescence microscopy. In kind it is functional, cell-based.
For test [12], the system named is A549. The test is described as follows: Inhibition of Akt phosphorylation in human A549 cells assessed as inhibition of FoxO3a phosphorylation at Thr32 at 10 uM after 3 hrs followed by 10 mins incubation in 10% FBS by Western blotting analysis. In kind it is cell-based.
The subject of test [13] is A549. The test is described as follows: Induction of apoptosis in human A549 cells assessed as cellular rupture into debris at IC50 by fluorescence microscopy. Format: functional, cell-based.
Test [14] can be described thus: Cytotoxicity against human HCC827 cells after 24 to 72 hrs by haemocytometry. In kind it is functional, cell-based.
In test [15] the test system is A549. The experiment in a line: Ratio of sunitinib IC50 to compound IC50 for human A549 cells. Format: functional.
The subject of test [16] is A549. The experiment in a line: Inhibition of Akt phosphorylation in human A549 cells assessed as inhibition of FoxO1 phosphorylation at Thr24 at 10 uM after 3 hrs followed by 10 mins incubation in 10% FBS by Western blotting analysis. In kind it is cell-based.
Test [17] concerns A549. The experiment in a line: Inhibition of Akt phosphorylation at Thr308 site in human A549 cells at IC50 after 72 hrs by ELISA. In kind it is cell-based. In general terms: ELISA stands for enzyme-linked immunosorbent assay.
Test [18] relates to A549. The test is described as follows: Inhibition of Akt phosphorylation at Ser473 site in human A549 cells at IC50 after 72 hrs by ELISA. Format: cell-based.
Test [19] relates to A549. The experiment in a line: Cell cycle arrest in human A549 cells assessed as decrease in G2 cells at IC50 after 24 hrs followed by compound washout by propidium iodide staining-based FACS analysis. In kind it is functional. The arrangement: scale not given: the % may be the effect or the level left.
Test [20] has as its system A549. The test is described as follows: Inhibition of Akt phosphorylation at Thr308 site in human A549 cells at 10 uM after 3 hrs followed by 10 mins incubation in 10% FBS by Western blotting analysis. In kind it is cell-based.
For test [21], the system named is MDA-MB-231. The experiment in a line: Selectivity for human HCC827 cells over human MDA-MB-231 cells. Format: functional.

As usually defined, the inhibition is the relative decrease from the control value, in per cent. As a reminder, the IC50 is the point on the concentration scale where inhibition reaches its midpoint.

The source made the active and inactive calls. The calls are words filed in the database; no cut-off is given here.

Chain of Epidermal growth factor receptor (Homo sapiens) (P00533 whole entry): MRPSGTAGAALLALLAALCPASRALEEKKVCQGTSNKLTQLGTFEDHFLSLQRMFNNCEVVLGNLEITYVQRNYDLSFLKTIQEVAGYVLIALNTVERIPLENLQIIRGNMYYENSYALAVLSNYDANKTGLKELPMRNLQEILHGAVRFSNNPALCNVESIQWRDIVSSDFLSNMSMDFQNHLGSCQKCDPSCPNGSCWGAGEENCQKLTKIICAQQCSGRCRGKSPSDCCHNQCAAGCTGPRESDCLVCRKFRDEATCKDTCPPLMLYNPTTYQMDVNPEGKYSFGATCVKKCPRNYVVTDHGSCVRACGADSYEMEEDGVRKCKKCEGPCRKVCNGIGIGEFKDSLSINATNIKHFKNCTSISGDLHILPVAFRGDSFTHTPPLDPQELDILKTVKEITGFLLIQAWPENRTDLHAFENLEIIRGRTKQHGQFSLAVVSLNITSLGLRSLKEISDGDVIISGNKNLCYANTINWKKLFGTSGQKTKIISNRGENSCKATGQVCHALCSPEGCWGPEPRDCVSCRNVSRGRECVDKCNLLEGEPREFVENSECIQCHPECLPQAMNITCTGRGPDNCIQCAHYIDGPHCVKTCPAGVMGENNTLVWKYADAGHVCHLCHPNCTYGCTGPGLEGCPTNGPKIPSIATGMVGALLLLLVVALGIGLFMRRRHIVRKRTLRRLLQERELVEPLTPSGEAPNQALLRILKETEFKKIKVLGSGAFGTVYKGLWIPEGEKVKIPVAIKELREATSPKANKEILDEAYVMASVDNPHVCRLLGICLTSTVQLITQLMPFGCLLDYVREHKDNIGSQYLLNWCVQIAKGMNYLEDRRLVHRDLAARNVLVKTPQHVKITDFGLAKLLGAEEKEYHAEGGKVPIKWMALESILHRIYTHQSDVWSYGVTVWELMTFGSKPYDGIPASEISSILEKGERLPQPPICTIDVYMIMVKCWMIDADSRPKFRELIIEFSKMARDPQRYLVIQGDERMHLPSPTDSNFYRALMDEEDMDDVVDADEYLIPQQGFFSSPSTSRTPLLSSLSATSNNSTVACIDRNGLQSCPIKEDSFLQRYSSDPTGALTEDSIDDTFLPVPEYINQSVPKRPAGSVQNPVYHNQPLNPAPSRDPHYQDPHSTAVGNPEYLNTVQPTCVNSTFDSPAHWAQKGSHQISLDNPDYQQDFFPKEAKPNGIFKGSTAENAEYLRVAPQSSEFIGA

In the case of `COc1cc2c(cc1OC)CN(CC(=O)Nc1ccc3c(c1)/C(=C/c1cccs1)C(=O)N3)CC2`, the inhibition entry in test [1] and in test [9] was “inactive” throughout. For the same compound, the Activity entry in the test on A549 [2] was “tde”; in the test on A549 [4] it was 24%; in the test with A549 [5], “Dose-dependent effect”; in the test on A549 [8], 21.04%; in the test with A549 [10] it was -10.23%; in the test on A549 [19], -11.2%. The result in the test on A549 [3], with A549 [11] and with A549 [13] was Active. Besides, the IC50 worked out at 0.66 µM in the test on A549 [5] and 0.045 µM in [14]. Moreover, the result in the test on MDA-MB-231 [6] was inactive. The “Ratio IC50” value is on record as 2 with A549 [7] and 2.5 with A549 [15]. Also, the inhibition entry with A549 [12], in the test with A549 [16] and with A549 [20] was “Active” throughout. Besides, the inhibition with A549 [17] and in the test on A549 [18] was 20% in each case.
As for `COc1cc2ncnc(Nc3ccc(F)c(Cl)c3)c2cc1OCCCN1CCOCC1` [GEFITINIB], the Selectivity ratio with MDA-MB-231 [21] is 1700.
For the compound `COc1cc2c(cc1OC)CN(CC(=O)Nc1ccc3c(c1)CC(=O)N3)CC2`, the Activity entry was “tde” in the test on A549 [2]; 12% with A549 [4]; “Dose-dependent effect” in the test with A549 [5]; 19.24% in the test on A549 [8]; -4.99% with A549 [10]; -14.25% with A549 [19]. In addition, the outcome in the test with A549 [3], with A549 [11] and with A549 [13] was Active. The compound further registered an IC50 with A549 [5] of 16.2 µM. Further, the inhibition with A549 [17] and in the test on A549 [18] was 20% each time.
Regarding `COc1cc2c(cc1OC)CN(CC(=O)Nc1ccc3c(c1)/C(=C\c1ccccn1)C(=O)N3)CC2`, the Activity result is “tde” in the test with A549 [2]; “Dose-dependent effect” in the test with A549 [5]; 1.06% with A549 [8]; -2.75% in the test with A549 [10]; 1.69% in the test with A549 [19]. Further, the result with A549 [3], in the test on A549 [11] and in the test on A549 [13] was Active. In the test on A549 [5], this compound came in with an IC50 of 19.9 µM. Besides, the inhibition in the test with A549 [17] and in the test on A549 [18] was 20% each time.
On to `COc1cc2c(cc1OC)CN(CC(=O)Nc1ccc3c(c1)/C(=C\c1nccn1C)C(=O)N3)CC2`, for which the inhibition entry in test [1] and in test [9] was “inactive” each time. Further, the Activity result in the test on A549 [2] was “tde”; in the test on A549 [5], “Dose-dependent effect”; with A549 [8] it was -0.85%; in the test with A549 [10] it was 1.33%; in the test with A549 [19], -0.48%. Besides, the result in the test on A549 [3], with A549 [11] and in the test with A549 [13] was Active. For the same compound, in the test on A549 [5], the 50% inhibitory concentration (IC50) worked out at 2.75 µM. Also, in the test with MDA-MB-231 [6], the result was inactive. For the same compound, the “Ratio IC50” value in the test on A549 [7] came out at 2; in the test with A549 [15] it was 2.5. Moreover, the inhibition result in the test on A549 [12], with A549 [16] and in the test on A549 [20] was “Active” throughout. The inhibition with A549 [17] and in the test with A549 [18] was 20% throughout.
For `COc1cc2c(cc1OC)CN(CC(=O)Nc1ccc3c(c1)/C(=C/c1cnc[nH]1)C(=O)N3)CC2`, the Activity result in the test on A549 [2] is “tde”; in the test on A549 [5], “Dose-dependent effect”; in the test with A549 [8], -0.1%; in the test on A549 [10], -0.51%; with A549 [19], -0.61%. In addition, the result in the test on A549 [3], in the test on A549 [11] and with A549 [13] was Active. The compound also registered an IC50 with A549 [5] of 2.19 µM. The “Ratio IC50” value stood at 2 in the test on A549 [7] and 2.5 in the test on A549 [15]. The inhibition in the test on A549 [17] and in the test on A549 [18] was 20% throughout.
Turning to `CCCCCCCCCCCCCCCCCCOP(=O)([O-])OC1CC[N+](C)(C)CC1` [PERIFOSINE], the Activity entry in the test with A549 [2] is “tde”; with A549 [4], 32%; in the test with A549 [5], “Dose-dependent effect”; with A549 [8], 18.56%; with A549 [10], -4.05%; with A549 [19] it was -14.51%. The compound also came in with an IC50 with A549 [5] of 4.17 µM.
